Structures can show the parent of a compound that is named as a salt.
Key:
Type in all cases: cell-based
aerobic spores [1] = assay: Example 1: aerobic spore count in spiked paper machine water/broke at variable pulp consistency; conditions: for Spore reduction (%): DGH 100 mg/L as active vs no addition; for Aerobic spores, cfu/ml (+82° C., 10 min, +32° C., 2 d PCA): DGH 100 mg/L as active, 30 min, 45° C.
From the text: (§1) Objective of this laboratory test was to study bacterial killing and spore sensitisation effect of a germinant surfactant composition comprising 35 weight-% of dodecylguanidine hydrochloride (DGH) and dipropyleneglycol as solvent in paper machine process water, at variable pulp consistency.
(§2) Authentic circulation water, with low fibre content, and authentic broke, with high fibre content, were collected from a paper machine, which produced food packaging board. Circulation water and broke samples were mixed together to obtain 6 samples in total, at 3 different pulp consistency levels.
(§3) To obtain equal bacterial spore content in the samples at the start of the experiment, each sample was spiked with additional bacterial spores. Target spore level in the sample was set to ca. 10 000 CFU/ml. The spore solution for spiking was prepared as follows: authentic spore-forming bacteria that were isolated from a paper making process were pre-grown for 2 days at +37° C. in a modified nutrient broth, after which the mature spores were harvested, and washed by using centrifugation and cold water.
(§4) Out of the 6 samples, 3 test samples were treated with germinant surfactant comprising dodecylguanidine hydrochloride (DGH) and 3 samples were left without any chemical addition as reference samples. After addition of germinant surfactant, the test samples as well as the reference samples (no addition) were stored at 45° C., mixing of 180 rpm, for 30 minutes, followed by quantification of total aerobic bacteria (non-pasteurized samples) and aerobic spores (plate count agar, +32° C., 2 days incubation). Prior to the aerobic spore determination, samples were pasteurized at +82° C. for 10 min. Weight of suspended solids per litre of liquid, i.e. pulp consistency, was determined at the end of the test (dry weight of sample per total weight of sample).

total aerobic bacteria [2] = assay: Example 1: total aerobic bacteria count in paper machine water/broke at variable pulp consistency; conditions: for Bacterial killing efficacy (%): DGH 100 mg/L as active vs no addition; for Total aerobic bacteria (+32° C., 2 d PCA): DGH 100 mg/L as active, 30 min, 45° C.
From the text: as §1, §2, §3, §4

total aerobic bacteria [3] = assay: Example 3: total aerobic bacteria count in paper machine process water, biocidal pre-treatment; conditions: sodium hypochlorite 5 ppm as active chlorine (1 min pre-treatment) and/or DGH 100 ppm as active, untreated 7 000 000
Protocol: (§5) Objective of this laboratory test was to study effect of biocidal pre-treatment on bacterial killing and spore sensitisation efficacy of a germinant surfactant comprising 35 weight-% of dodecylguanidine hydrochloride (DGH) and dipropyleneglycol as solvent in paper machine process water.
Authentic circulation water (1 litre) was collected from a paper machine producing food packaging board and divided into 4 samples with volume of 50 ml. To obtain equal bacterial spore content in the samples at start of the experiment, each sample was spiked with additional bacterial spores. The target level for spores was c.a. 10 000 CFU/ml. The spore solution for spiking was prepared as follows: authentic spore-forming bacteria that were isolated from a paper making process were pre-grown for 2 days at +37° C. in modified nutrient broth, after which the mature spores were harvested, and washed by using centrifugation and cold water. […]
Samples were stored at 45° C., under mixing of 180 rpm, for 30 minutes except samples 2 and 4, which were in addition pre-treated with sodium hypochlorite for 1 minute. After the treatment the amount of total aerobic bacteria (non-pasteurized samples) and aerobic spores were quantified (plate count agar, +32° C., 2 days incubation). […]

aerobic spores [4] = assay: Example 3: aerobic spore count in spiked paper machine process water, biocidal pre-treatment
Protocol: as §5
Authentic circulation water (1 litre) was collected from a paper machine producing food packaging board and divided into 4 samples with volume of 50 ml. To obtain equal bacterial spore content in the samples at start of the experiment, each sample was spiked with additional bacterial spores. The target level for spores was c.a. 10 000 CFU/ml. The spore solution for spiking was prepared as follows: authentic spore-forming bacteria that were isolated from a paper making process were pre-grown for 2 days at +37° C. in modified nutrient broth, after which the mature spores were harvested, and washed by using centrifugation and cold water. Out of the 4 samples, • the first sample was left without any chemical addition as a reference sample. • the second sample was treated with sodium hypochlorite, at dosage of 5 mg/I, given as active chlorine; • the third sample was treated with a germinant surfactant comprising dodecylguanidine hydrochloride (DGH), at dosage level of 100 mg/I, given as active compound; and • the fourth sample was treated with sodium hypochlorite, at dosage of 5 mg/I, given as active chlorine) for 1 minute, after which the […] sample was treated with a germinant surfactant comprising dodecylguanidine hydrochloride (DGH), at dosage level of 100 mg/I, given as active compound;
Samples were stored at 45° C., under mixing of 180 rpm, for 30 minutes except samples 2 and 4, which were in addition pre-treated with sodium hypochlorite for 1 minute. After the treatment the amount of total aerobic bacteria (non-pasteurized samples) and aerobic spores were quantified (plate count agar, +32° C., 2 days incubation). Prior to the aerobic spore determination, samples were pasteurized at +82° C. for 10 min.

total aerobic bacteria [5] = assay: Example 2: total aerobes count in stagnant 2 d old broke diluted with circulation water; conditions: DGH 70 mg/l active 5 min, total contact time 35 min, +45° C., untreated 9×10^6 CFU/ml
Protocol: (§6) Authentic broke and circulation water samples were collected from an alkaline paper mill producing food packaging board. 1 litre of broke was stored for 2 days, +45° C., with closed cap, without mixing, in order to induce anaerobism and thus bacterial sporulation. This stagnant sample was divided to four 100 ml samples, out of which two replicate samples were treated with a germinant surfactant comprising 35 weight-% dodecylguanidine hydrochloride (DGH) and dipropyleneglycol as solvent. The dosage was 70 mg/L as active DGH. Two replicates were left without any chemical additions as reference samples.
(§7) After chemical contact time of 5 min, all samples were diluted three times with the circulation water and incubated for 30 minutes, at +45° C., mixing of 160 rpm. Total aerobes (PCA, +37° C.) and aerobic spores (PCA, +37° C.) were measured at start from reference samples and after the total contact time of 35 min from all samples.

aerobic spores [6] = assay: Example 2: aerobic spore count in stagnant 2 d old broke diluted with circulation water
Protocol: as §6, §7

CCCCCCCCCCCCNC(=N)N [DGH, dodecylguanidine hydrochloride] was tested, and the spore reduction (aerobic spores [1]; process streams with different pulp consistencies (summary of Example 1)) was over 45%, the “Spore reduction (%)” value (aerobic spores [1]; pulp consistency 0.1 w/w-%) was 98% and the “Aerobic spores, cfu/ml (+82° C., 10 min, +32° C., 2 d PCA)” value (from here on “Aerobic spores, cfu/ml”) (aerobic spores [1]; pulp consistency 0.1 w/w-%) was 400 cfu/ml. For the same compound, the “Spore reduction (%)” value (aerobic spores [1]; pulp consistency 3 w/w-%) was 87%, the “Aerobic spores, cfu/ml” value (aerobic spores [1]; pulp consistency 3 w/w-%) was 700 cfu/ml and the “Spore reduction (%)” value (aerobic spores [1]; pulp consistency 6 w/w-%) was 45%. For the same compound, the “Aerobic spores, cfu/ml” value (aerobic spores [1]; pulp consistency 6 w/w-%) was 2 800 cfu/ml, the “Bacterial killing efficacy (%)” value (total aerobic bacteria [2]; pulp consistency 0.1 w/w-%) was 100% and the “Total aerobic bacteria (+32° C., 2 d PCA)” value (total aerobic bacteria [2]; pulp consistency 0.1 w/w-%) was 300. For the same compound, the “Bacterial killing efficacy (%)” value (total aerobic bacteria [2]; pulp consistency 3 w/w-%) was 78%, the “Total aerobic bacteria (+32° C., 2 d PCA)” value (total aerobic bacteria [2]; pulp consistency 3 w/w-%) was 9 000 and the “Bacterial killing efficacy (%)” value (total aerobic bacteria [2]; pulp consistency 6 w/w-%) was 55%. For the same compound, the “Total aerobic bacteria (+32° C., 2 d PCA)” value (total aerobic bacteria [2]; pulp consistency 6 w/w-%) was 77 000, the “Total aerobic bacteria PCA +32, 30 min @45° C.” value (total aerobic bacteria [3]) was 10 000 CFU/ml and the spore reduction (aerobic spores [4]; DGH 100 mg/l active, with or without sodium hypochlorite 5 mg/l pre-treatment, vs untreated) was over 70%. For the same compound, the “total aerobic bacteria level” value (total aerobic bacteria [5]) was 2×10^6 CFU/ml, the “level of aerobic spores” value (aerobic spores [6]; stagnant 2 d old broke, DGH 70 mg/l active 5 min, diluted, total contact time 35 min, +45° C., untreated 330 CFU/ml) was 120 CFU/ml and the spore reduction (aerobic spores [6]; stagnant diluted broke, DGH 70 mg/l active) was over 60%.

For OCl [sodium hypochlorite], the “Aerobic spores PCA +32 30 min @45° C.” value (aerobic spores [4]; pasteurized +82° C. 10 min, sodium hypochlorite 5 ppm as active chlorine and/or DGH 100 ppm as active, untreated 13 000) was 17 000 CFU/ml and the “effect on bacterial spores” value (aerobic spores [4]; sodium hypochlorite 5 mg/l as active chlorine) was “did not have any effect on bacterial spores”.

Source: patent publication US11530514B2, “Method for manufacturing a fibrous web” (Kemira Oyj, priority 2017, dated 2022)
